From patent publication US5998437A, “Benzimidazole derivatives” (Otsuka Pharmaceutical Co., Ltd., priority 1995, dated 1999)

Legend:
cGMP-PDE = target: T1, cGMP-PDE (Homo sapiens, UniProt O76074); assay: Activity for inhibiting cGMP PDE (PDE partially purified from human platelets, FI fraction); format: biochemical; conditions: 0.4 μM of [3H]-cGMP
T1 construct: Separation and partial purification of PDE (phosphodiesterase) from human platelets; from tissue; host or cells: human platelets (supernatant, DEAE-cellulose FI fraction)
Description: (1) Measurement of the Activity for Inhibiting cGMP PDE
Separation and partial purification of PDE (phosphodiesterase) from human platelets, and measurement of the activity for inhibiting cGMP PDE were conducted by the method of Hidaka, et al. [Biochimica et Biophysica Acta, Vol. 429, (1976), pp. 485-497]. The platelets obtained from human healthy adult were washed, and suspended in TRIS-buffer solution, then said suspension was treated by centrifugal separation, the supernatant was subjected to a DEAE-cellulose treatment and fractionated into FI to FIII fractions by a method of concentration gradient of sodium acetate. Thus obtained FI fraction was used as the sample of cGMP-PDE. The activity for inhibiting cGMP-PDE was measured by using 0.4 μM of [^3 H]-cGMP.

human fibroblast = assay: Activity for inhibiting proliferation of the human fibroblast ([3H]-thymidine uptake); format: cell-based
Description: Test was conducted by the modified method of N. Morisaki [Atherosclerosis, Vol. 71, (1988), pp. 165-171]. The rat A10 cells (purchased from Dainippon Pharmaceutical Co., Ltd.) were inoculated on a 24 wells immunoplate at a density of 10,000 cells/well, and were cultured in 10% FBS (fetal bovine serum) for 2 days, and in order to introduce the cells into the resting stage, the cells were further cultured in a serum-free medium for 2 days. After that, 1% FBS was added thereto for stimulating the proliferation, of the cells and at the same time, a test compound and 0.5 μCi/well of [^3 H]-thymidine were added. As to the index of synthesized amount of DNA, the quantity of [^3 H]-thymidine being uptaken by the cells was measured at the time of 24 hours after the final cultivation was started.
(3) Measurement of the Activity for Inhibiting Proliferation of the Human Fibroblast
Similar to the activity for inhibiting proliferation of rat A10 cells as mentioned above, the activity for inhibiting proliferation of the human fibroblast (purchased from Dainippon Pharmaceutical Co., Ltd.) was determined by measuring the uptake amount of [^3 H]-thymidine.

[1] = tested on: chronic contactive dermatitis; assay: Activity for inhibiting chronic contactive dermatitis (TNCB, ear pinna); format: in vivo, Balb/c strain male mouse; conditions: for Thickness of ear pinna (×10 μm): control 137.1 ± 6.2, 8 animals; for Inhibition rate (%): ear pinna thickness
Description: (5) Determination of the Activity for Inhibiting Chronic Contactive Dermatitis
The activity for inhibiting chronic contactive dermatitis [J. Dermatol. Sci., Vol. 8, (1994), page 54] which is analogous to atopic dermatitis being reported by Kitagaki, et al. was discussed by using the method as follows. The right-side ear pinna of Balb/c strain male mouse was subjected to antigen sensitization by coating with 20 μl of acetone solution of 1% trinitrochlorobenzene (TNCB). 7 Days after the antigen sensitization, the same right-side pinna was subjected to antigen induction by coating with 20 μl of 1% TNCB acetone solution. The treatment of antigen induction was repeated in every 2 days so as to induced chronic contactive dermatitis. In this test, increase of thickness of the right-side ear pinna was induced by passing into a chronic state of the contactive dermatitis. The test compound was dissolved in acetone-methanol (4:1 by v/v) and 20 μl of this solution was administered by coating on the right-side of ear pinna once a day from 24th day after the antigen induction for 2 weeks. As to the control, the only the solvent was similarly administered. The antigen induction by the test compound during administration period was conducted at 30 minutes before the administration. The thickness of the ear pinna of 14th day after the administration was measured by a dial thickness gauge.

[2] = 0.1% coated once a day for 2 weeks

Compound: O=C(Nc1ccc2c(ccn2CCCn2ccnc2)c1)c1nc2ccc(Cl)cc2n1Cc1ccccc1 [Example 3, 1-benzyl-6-chloro-2-{1-[3-(imidazol-1-yl)propyl]indol-5-ylamino-carbonyl}benzimidazole]
- IC50 (cGMP-PDE): 0.01 µM
- IC50 (human fibroblast): 0.04 µM
- Thickness of ear pinna (×10 μm) [1, 2]: 120.4 ± 5.3 ×10 μm
- Thickness of ear pinna (×10 μm) ([1]; 0.3% coated once a day for 2 weeks): 105.0 ± 7.2 ×10 μm
- Thickness of ear pinna (×10 μm) ([1]; 1.0% coated once a day for 2 weeks): 64.5 ± 1.6 ×10 μm
- Inhibition rate (%) [1, 2]: 12%
- Inhibition rate (%) ([1]; 0.3% coated once a day for 2 weeks, * p < 0.01 vs control, Dunnett's test): 23%
- Inhibition rate (%) ([1]; 1.0% coated once a day for 2 weeks, * p < 0.01 vs control, Dunnett's test): 53%
